Drawing on patent US10011615B2, “Heterobicyclo-substituted [1,2,4]triazolo[1,5-c]quinazolin-5-amine compounds with A2A anatagonist properties” (Merck Sharp & Dohme Corp., priority 2012, dated 2018), this text covers EC50 for 27 compounds.

pEC50: −log10 of the molar value. Several values for one entry are separate records, joined by “and”; a condition that tells them apart may be missing. Identical values can stand only once.

The assay addresses T1, human A2a receptor (Homo sapiens, UniProt P29274).
T1 construct: purchased Perkin-Elmer RBHA2AM400UA; host or cells: HEK293 cell membranes
The experiment in a line: A2a receptor competition binding assay using Scintillation Proximity technology. As to conditions: membranes from HEK293 cells expressing human A2a receptor; 0.5 nM tritiated radioligand; SPA beads; 1 h room temperature. How it is done: Binding affinities of compounds of the invention for the human A2a receptor were determined in a competition binding assay using Scintillation Proximity technology. Thus, 0.3 μg of membranes from HEK293 cells expressing the human A2a receptor were incubated with a compound of the invention at concentrations ranging from 3000 nM to 0.15 nM in a reaction mixture containing also 0.5 nM of a tritiated form of 5-amino-7-[2-phenethyl]-2-(furan-2-yl)-7H-pyrazolo[4,3-e][1,2,4]triazolo[1,5-c]pyrimidine (the tritiated compound) and 100 μg of wheat germ agglutin-coated yttrium silicate SPA beads for one hour at room temperature with agitation. The beads were then allowed to settle to the bottom of the wells for 1 hr, after which the membrane-associated radioactivity was determined by scintillation counting in a TopCount microplate reader. Ki values were determined using the Cheng-Prusoff equation.
Summary of Materials and Methods Used in A2a Activity Determination:
HEK293 cells expressing the human, rat, dog or monkey adenosine 2a receptor (Purchased from Perkin-Elmer # RBHA2AM400UA).
The Tritiated compound was prepared in-house by MRL Radiochemistry according to published methods.
Wheat germ agglutinin-coated yttrium silicate SPA beads (GE Healthcare#RPNQ0023). Dilute to 25 mg/ml in assay buffer.
Assay Buffer was prepared in house: Dulbecco's calcium and magnesium free phosphate buffered saline+10 mM MgCl2
Adenosine deaminase from calf intestine, 10 mg/2 ml (Roche) 10 102 105 001).
A2a antagonist standard (9-chloro-1-(2-furanyl)-[1,2,4]triazolo1,5-c]quinazolin-5-amine from Tocris Bioscience)
Make eight 1:3 serial dilutions in 100% DMSO from a 3 mM compound stock
Transfer 50 nl of compound into a 384-well OptiPlate (Perkin Elmer).
Typically, final concentrations of compound used in the assay ranged from 3000 nM to 0.152 nM.
Dilute a solution of the Tritiated compound to 1.25 nM in assay buffer. This is a 2.5× solution. The final concentration in the assay is 0.5 nM. Calculate the concentration by counting two 5 μl aliquots.
Use 0.25 ug of membrane/well. Dilute membranes to 9.7 μg/ml in assay buffer. Treat with 20 ug/ml adenosine deaminase (ADA) for 15 minutes at room temperature to degrade endogenous adenosine.
Use 100 μg/well wheat germ agglutinin-coated yttrium silicate SPA beads.
Mix ADA-treated membranes and SPA beads together for 30 min prior to assay.
To the Perkin-Elmer Optiplate-384 containing the compound titration add 20 μl of 2.5× solution of the Tritiated compound and 30 μl of the membrane-bead mixture. Incubate for one hour at room temperature with agitation.
Include total binding (assay buffer+1% DMSO) and non-specific binding (CGS15943, 1 μM) wells.
Allow the beads to settle for one hour.
A curve fitting program (i.e., Prism, Activity Base, Chemcart) is used to determine the EC50. The Ki value is calculated using the Cheng-Prusoff equation: K i=EC50/(1+(radioligand concentration/Kd)).
A general note: Scintillation proximity formats need no separation of bound from free tracer.

T1 sequence (P29274 whole entry): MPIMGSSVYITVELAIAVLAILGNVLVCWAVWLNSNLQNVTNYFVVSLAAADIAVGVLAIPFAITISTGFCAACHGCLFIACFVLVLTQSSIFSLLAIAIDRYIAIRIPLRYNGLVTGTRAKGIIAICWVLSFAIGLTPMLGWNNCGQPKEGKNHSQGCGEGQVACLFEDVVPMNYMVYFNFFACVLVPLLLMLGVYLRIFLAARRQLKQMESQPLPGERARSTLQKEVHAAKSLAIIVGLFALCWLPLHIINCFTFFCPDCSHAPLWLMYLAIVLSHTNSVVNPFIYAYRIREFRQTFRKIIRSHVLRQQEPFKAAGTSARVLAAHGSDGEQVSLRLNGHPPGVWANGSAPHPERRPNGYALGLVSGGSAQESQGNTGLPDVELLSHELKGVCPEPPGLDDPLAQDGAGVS

For `COc1cccc2c1nc(N)n1nc(CCN3CCn4c(nnc4SC)C3)nc21` [Ex-1, 7-methoxy-2-(2-(3-(methylthio)-5,6-dihydro-[1,2,4]triazolo[4,3-a]pyrazin-7(8H)-yl)ethyl)-[1,2,4]triazolo[1,5-c]quinazolin-5-amine], the pEC50 was 8.40. As for `COc1cccc2c1nc(N)n1nc(CCN3CCn4c(nnc4C(=O)NC(C)(C)C)C3)nc21` [Ex-2, 7-(2-(5-amino-7-methoxy-[1,2,4]triazolo[1,5-c]quinazolin-2-yl)ethyl)-N-tert-butyl-5,6,7,8-tetrahydro-[1,2,4]triazolo[4,3-a]pyrazine-3-carboxamide], the pEC50 is 8.54.

`COc1cccc2c1nc(N)n1nc(CCN3CCn4c(Br)nnc4C3)nc21` [Ex-3, 2-(2-(3-bromo-5,6-dihydro-[1,2,4]triazolo[4,3-a]pyrazin-7(8H)-yl)ethyl)-7-methoxy-[1,2,4]triazolo[1,5-c]quinazolin-5-amine] had a pEC50 of 8.47.

As to `CCOC(=O)c1nnc2n1CCN(CCc1nc3c4cccc(OC)c4nc(N)n3n1)C2` [Ex-4, ethyl 7-(2-(5-amino-7-methoxy-[1,2,4]triazolo[1,5-c]quinazolin-2-yl)ethyl)-5,6,7,8-tetrahydro-[1,2,4]triazolo[4,3-a]pyrazine-3-carboxylate], the pEC50 was 8.34. Compound `COc1cccc2c1nc(N)n1nc(CCN3Cc4ccc(Cl)nc4C3)nc21` [Ex-5, 2-(2-(2-chloro-5H-pyrrolo[3,4-b]pyridin-6(7H)-yl)ethyl)-7-methoxy-[1,2,4]triazolo[1,5-c]quinazolin-5-amine] had a pEC50 of 8.33. The pEC50 values of the last two compounds are within 0.2 log units of each other. In the case of `COc1cccc2c1nc(N)n1nc(CCN3CCc4c(Br)ccnc4C3)nc21` [Ex-6, 2-(2-(4-bromo-5,6-dihydro-1,7-naplithyridin-7(8H)-yl)ethyl)-7-methoxy-[1,2,4]triazolo[1,5-c]quinazolin-5-amine], the pEC50 is 8.23. In turn, `COc1cccc2c1nc(N)n1nc(CCN3CCc4c(cnn4C4CC4)C3)nc21` [Ex-7, 2-(2-(1-cyclopropyl-6,7-dihydro-1H-pyrazolo[4,3-c]pyridin-5(4H)-yl)ethyl)-7-methoxy-[1,2,4]triazolo[1,5-c]iquinazolin-5-amine] showed a pEC50 of 8.85. In the case of `COc1cccc2c1nc(N)n1nc(CCN3CCn4c(cnc4C(C)C)C3)nc21` [Ex-8, 2-(2-(3-isopropyl-5,6-dihydroimidazo[1,5-a]pyrazin-7(8H)-yl)ethyl)-7-methoxy-[1,2,4]triazolo[1,5-c]quinazolin-5-amine], the pEC50 was 8.66. As to `COc1cccc2c1nc(N)n1nc(CCN3CCc4noc(C(F)(F)F)c4C3)nc21` [Ex-9, 7-methoxy-2-(2-(3-(trifluoromethyl)-6,7-dihydroisoxazolo[4,3-c]pyridin-5(4H)-yl)ethyl)-[1,2,4]triazolo[1,5-c]quinazolin-5-amine], the pEC50 was 8.68. `COc1cccc2c1nc(N)n1nc(CCN3CCn4cc(C(=O)C5CC5)nc4C3)nc21` [Ex-10, (7-(2-(5-amino-7-methoxy[1,2,4]triazolo[1,5-c]quinazolin-2-yl)ethyl)-5,6,7,8-tetrahydroimidazo[1,2-a]pyrazin-2-yl)(cyclopropyl)methanone]: the negative-log EC50 (pEC50) is 8.92. As to `COc1cccc2c1nc(N)n1nc(CCN3CCn4nc(C(F)(F)F)nc4C3)nc21` [Ex-11], the pEC50 is 8.57.

For `COc1cccc2c1nc(N)n1nc(CCN3CCn4nc(C5CC5)nc4C3)nc21` [Ex-12, 2-(2-(2-cyclopropyl-5,6-dihydro-[1,2,4]triazolo[1,5-a]pyrazin-7(8H)-yl)ethyl)-7-methoxy-[1,2,4]triazolo[1,5-c]quinazolin-5-amine], the pEC50 was 8.70. Consider `CCc1ncc2n1CCN(CCc1nc3c4cccc(OC)c4nc(N)n3n1)C2` [Ex-13, 2-(2-(3-ethyl-5,6-dihydroimidazo[1,5-a]pyrazin-7(8H)-yl)ethyl)-7-methoxy-[1,2,4]triazolo[1,5-c]quinazolin-5-amine], for which the pEC50 was 8.66. Compound `COc1cccc2c1nc(N)n1nc(CCN3Cc4nc(C)sc4C3)nc21` [Ex-14, 7-methoxy-2-(2-(2-methyl-4H-pyrrolo[3,4-d]thiazol-5(6H)-yl)ethyl)-[1,2,4]triazolo[1,5-c]quinazolin-5-amine] gave a pEC50 of 8.82. Compound `COc1cccc2c1nc(N)n1nc(CCN3CCc4c(sc(C5CC5)c4C#N)C3)nc21` [Ex-15, 6-(2-(5-amino-7-methoxy-[1,2,4]triazolo[1,5-c]quinazolin-2-yl)ethyl)-2-cyc1opropyl-4,5,6,7-tetrahydrothieno[2,3-c]pyridine-3-carbonitri1e] gave a pEC50 of 8.66. This pEC50 and that of the compound before are within 0.2 log units of each other. In the case of `COc1cccc2c1nc(N)n1nc(CCN3CCc4nc(C(F)(F)F)[nH]c4C3)nc21` [Ex-16, 7-methoxy-2-(2-(2-(trifluoromethyl)-6,7-dihydro-3H-imidazo[4,5-c]pyridin-5(4H)-yl)ethyl)-[1,2,4]triazolo[1,5-c]quinazolin-5-amine], the pEC50 was 8.64. As for `COc1cccc2c1nc(N)n1nc(CCN3CCn4c(nnc4C(F)(F)F)C3)nc21` [Ex-17, 7-methoxy-2-(2-(3-(trifluoromethyl)-5,6-dihydro[1,2,4]triazolo[4,3-a]pyrazin-7(8H)-yl)ethyl)-[1,2,4]triazolo[1,5-c]quinazolin-5-amine], the figure is 8.02; as for `COc1cccc2c1nc(N)n1nc(CCN3Cc4cnc(C(F)(F)F)nc4C3)nc21` [Ex-18, 7-methoxy-2-(2-(2-(trifluoromethyl)-5H-pyrrolo[3,4-d]pyrimidin-6(7H)-yl)ethyl)-[1,2,4]triazolo[1,5-c]quinazolin-5-amine], 7.88.

On to `COc1cccc2c1nc(N)n1nc(CCN3Cc4cncnc4C3)nc21` [Ex-19, 2-(2-(5H-pyrrolo[3,4-d]pyrimidin-6(7H)-yl)ethyl)-7-methoxy-[1,2,4]triazolo[1,5-c]quinazolin-5-amine], for which the pEC50 was 8.12. Compound `COc1cccc2c1nc(N)n1nc(CCN3CCCCc4cccnc43)nc21` [Ex-20, 2-(2-(7,8-dihydro-5H-pyrido[2,3-b]azepin-9(6H)-yl)ethyl)-7-methoxy-[1,2,4]triazolo[1,5-c]quinazolin-5-amine] had a pEC50 of 7.89. As for `COc1cccc2c1nc(N)n1nc(CCN3CCc4cccnc43)nc21` [Ex-21, 2-(2-(2,3-dihydro-1H-pyrrolo[2,3-b]pyridin-1-yl)ethyl)-7-methoxy-[1,2,4]triazolo[1,5-c]quinazolin-5-amine], the figure is 7.51. Take `CCc1nnc2n1CCN(CCc1nc3c4cccc(OC)c4nc(N)n3n1)C2` [Ex-22, 2-(2-(3-ethyl-5,6-dihydro-[1,2,4]triazolo[4,3-a]pyrazin-7(8H)-yl)ethyl)-7-methoxy-[1,2,4]triazolo[1,5-c]quinazolin-5-amine]: the pEC50 was 8.17.

In the case of `COc1cccc2c1nc(N)n1nc(CCN3Cc4cnc(C)nc4C3)nc21` [Ex-23, 7-methoxy-2-(2-(2-methyl-5H-pyrrolo[3,4-d]pyrimidin-6(7H)-yl)-ethyl)-[1,2,4]triazolo[1,5-c]quinazolin-5-amine], the pEC50 was 8.36 and 8.18. In turn, `COc1cccc2c1nc(N)n1nc(CCN3Cc4ccccc4C3)nc21` [Ex-24, 2-(2-(isoindolin-2-yl)ethyl)-7-methoxy-[1,2,4]triazolo[1,5-c]quinazolin-5-amine] showed a pEC50 of 7.95. With `COc1cccc2c1nc(N)n1nc(CCN3CCc4sc(C)nc4C3)nc21` [Ex-25, 7-methoxy-2-(2-(2-methyl-6,7-dihydrothiazolo[4,5-c]pyridin-5(4H)-yl)ethyl)-[1,2,4]triazolo[1,5-c]quinazolin-5-amine], the pEC50 is 9.05. Against the preceding compound, the pEC50 is 1.10 log units higher. As for `COc1cccc2c1nc(N)n1nc(CCN3CCc4sc(C(F)(F)F)nc4C3)nc21` [Ex-26, 7-methoxy-2-(2-(2-(trifluoromethyl)-6,7-dihydrothiazolo[4,5-c]pyridin-5(4H)-yl)ethyl)-[1,2,4]triazolo[1,5-c]quinazolin-5-amine], the figure is 9.30; as for `COc1cccc2c1nc(N)n1nc(CCN3CCc4oc(C)nc4C3)nc21` [Ex-27, 7-methoxy-2-(2-(2-methyl-6,7-dihydrooxazolo[4,5-c]pyridin-5(4H)-yl)ethyl)-[1,2,4]triazolo[1,5-c]quinazolin-5-amine], 8.80.

Broadly, the pEC50 is the EC50 on a negative log10 scale, so that one unit is a factor of ten. Read a high pEC50 as a small EC50.
